According to patent EP0536208B1, “1,2-DIHYDRO-3H-DIBENZISOQUINOLINE-1,3-DIONE ANTICANCER AGENTS” (RESEARCH CORPORATION TECHNOLOGIES, INC., priority 1990, dated 1992):

What was measured:
[1] = system: 16-C Mammary Adenocarcinoma; details: cited from earlier work
[2] = system: P-388 lymphocytic leukemia; details: mice; cited from earlier work
M5-76 Sarcoma = details: cited from earlier work
SW80p105 = experiment: Activity against human colon tumor cells (MTT assay, 3 day drug exposure); type: cell-based; details: cells plated 24 hr. prior to drug addition, read-out: Concentration for 50% inhibition of colony formation for human colon tumors
Procedure: (§1) For example, the compounds of the present invention were evaluated for cytotoxic activities in cloned human colon carcinomas. The clonogenic assays were conducted in accordance with the procedure described hereinbelow: 1) Colony Forming Assays in Soft Agar: Fresh human or murine tumors are disaggregated into single cell suspensions using mechanical, hypoosmotic and/or enzymatic (trypsin) methods. The single cells (about 5 X 10^4-10^5) are plated in 35 mm plastic petri dishes onto a 1 ml "feeder layer" of 0.3% agar dissolved in growth medium containing 5-10% vol/vol of heat-inactivated fetal bovine serum, molten 0.3% agar and the antibiotics penicillin (100 u/mL) and streptomycin (100 ug/mL). Drug exposures can be performed for one hour or continuously (drugs added to final plating medium). Tumor cell colonies > 60 uM in size are counted by automated image analysis after 10-20 days of incubation in a humidified, 5-10% CO2-gassed environment maintained at 37°C. Inhibition of colony formation is calculated based on comparisons to control (untreated) plates wherein the growth of hundreds of colonies/plate is typical. (Salmon SE, et al., N Engl J Med 298(24):1321-1327, 1978).
(§2) Compounds of the present invention were tested for their in vitro activity in tumor cells sensitive and resistant to standard anti-cancer agents. The tumor cell lines used in this protocol are 8226 human Myeloma^1; 8226/Dox-40^2, L-1210/Murine Leukemia, multidrug resistant L-210/^3, 2780 Human Ovarian Cancer and 2780/AD^4. Each of these resistant cell lines is known as a multidrug resistant or "MDR" cell line. These cell lines produce a 170,00 molecular weight membrane protein termed the P-glycoprotein which acts as an active drug efflux pump. Thus, once a cell produces the P-glycoprotein, it has the capability of pumping out of the cell a large variety of unrelated natural products. […] The protocol for measuring the effectiveness of compounds of the present invention is as follows: 2) In Vitro Tumor Cell Viability Assays Using MTT-Dye: Tumors are processed into a single cell suspension as described above. The cells are plated at a concentration of 3-5 X 10^4/1 mL well into plastic 96-well plates. […] Afterwards the medium containing the drug is removed, the cells are "washed" by centrifugation in fresh medium or phosphate-buffered saline (pH 7.4). A tetrazolium dye is then added (3,4,5-dimethylthiazol-2-yl)-2,5-diphenyl tetrazolium bromide (MTT). This dye forms a colored formazan product upon activation by mitochondrial reductases in viable cells. Typically, the formazan product is solubilized in acid-propanol or DMSO. The intensity of the color is proportional to viable cell numbers and this is quantitated by spectrophotometric absorbance ([…]) on a micro ELISA plate reader. Test results are calibrated in % control absorbance from untreated tumor cells (Mossman T: J Immunol Meth 65:55-63, 1983). Using the above procedure, Compound 1 was tested for its cytotoxic activity with respect to various tumor cell lines.

HT29p30 = experiment: as above; type: cell-based; details: cells plated 24 hr. prior to drug addition, read-out: Concentration for 50% inhibition of colony formation for human colon tumors
Procedure: as §1, §2

[3] = system: P-388/ADR (adriamycin-Resis-tant); details: mice; cited from earlier work
205p14 = experiment: Activity against human colon tumor cells (MTT assay, 3 day drug exposure); type: cell-based; details: cells plated 24 hr. prior to drug addition, read-out: Concentration for 50% inhibition of colony formation for human colon tumors
Procedure: as §1
(§3) Compounds of the present invention were tested for their in vitro activity in tumor cells sensitive and resistant to standard anti-cancer agents. The tumor cell lines used in this protocol are 8226 human Myeloma^1; 8226/Dox-40^2, L-1210/Murine Leukemia, multidrug resistant L-210/^3, 2780 Human Ovarian Cancer and 2780/AD^4. Each of these resistant cell lines is known as a multidrug resistant or "MDR" cell line. These cell lines produce a 170,00 molecular weight membrane protein termed the P-glycoprotein which acts as an active drug efflux pump. Thus, once a cell produces the P-glycoprotein, it has the capability of pumping out of the cell a large variety of unrelated natural products. […] The protocol for measuring the effectiveness of compounds of the present invention is as follows: 2) In Vitro Tumor Cell Viability Assays Using MTT-Dye: Tumors are processed into a single cell suspension as described above. The cells are plated at a concentration of 3-5 X 10^4/1 mL well into plastic 96-well plates. Growth medium containing 5-10% (vol/vol) heat-inactivated fetal bovine serum and penicillin/streptomycin (as above) is added prior to incubation at 37°C for six days. Afterwards the medium containing the drug is removed, the cells are "washed" by centrifugation in fresh medium or phosphate-buffered saline (pH 7.4). A tetrazolium dye is then added (3,4,5-dimethylthiazol-2-yl)-2,5-diphenyl tetrazolium bromide (MTT). This dye forms a colored formazan product upon activation by mitochondrial reductases in viable cells. Typically, the formazan product is solubilized in acid-propanol or DMSO. The intensity of the color is proportional to viable cell numbers and this is quantitated by spectrophotometric absorbance ([…]) on a micro ELISA plate reader. Test results are calibrated in % control absorbance from untreated tumor cells (Mossman T: J Immunol Meth 65:55-63, 1983). Using the above procedure, Compound 1 was tested for its cytotoxic activity with respect to various tumor cell lines.

LOVOp32 = experiment: as above; type: cell-based; details: cells plated 24 hr. prior to drug addition, read-out: Concentration for 50% inhibition of colony formation for human colon tumors
Procedure: as §1, §3

Colon-38 Adenocarcinoma = details: mice; cited from earlier work
FRESH HUMAN TUMORS = experiment: Colony forming assay in fresh human tumors, all tumor types; type: cell-based; details: Total of all tumor types; .001 ug/mL continuously; tumor cell survival of less than 50% of control
Procedure: as §1, with “The” for “For example, the compounds of the present invention were evaluated for cytotoxic activities in cloned human colon carcinomas. The”, “(Salmon SE, et al., N Engl J Med 298(24):1321-1327, 1978).” left out
Fresh human tumor specimens disaggregated to single cell suspensions and exposed to .001 ug/mL of drug continuously. Percent survival represents the fraction of tumor colonies (> 60 uM size) obtained after drug treatment compared to untreated cells of the same tumor. […] Each tumor sample is analyzed in three different petri dishes (i.e., n = 3 for each sample).

SMILES	Comparative Activity From The Literature, Days of Tumor Growth Delay [1] [days]	Comparative Activity From The Literature, ILS (Percentage Increased Lifespan) [2] [ILS]	Comparative Activity From The Literature, Days of Tumor Growth Delay (M5-76 Sarcoma) [days]	IC50 (SW80p105) [µM]	IC50 (HT29p30) [µM]	Comparative Activity From The Literature, ILS (Percentage Increased Lifespan) [3] [ILS]	IC50 (205p14) [µM]	IC50 (LOVOp32) [µM]	Comparative Activity From The Literature, Days of Tumor Growth Delay (Colon-38 Adenocarcinoma) [days]	Overall Response (FRESH HUMAN TUMORS) [%]
CN(C)CCN1C(=O)c2cccc3cc(N)cc(c23)C1=O [Amonafide, amino-N-dimethylaminoethylbenz[de]isoquinoline]	7	99	7	0.57	0.96	35	0.16	0.6	<7	–
COc1cccc2c1C(=O)c1c(O)c3c(c(O)c1C2=O)C[C@@](O)(C(=O)CO)C[C@@H]3O[C@H]1C[C@H](N)[C@H](O)[C@H](C)O1 [Doxorubicin]	–	164	–	–	–	18	–	–	10	20
